Data from patent US20230111310A1, “CARBOXYLIC ACID DERIVATIVE-SUBSTITUTED IMINO ARYL COMPOUND, PREPARATION METHOD THEREFOR, HERBICIDAL COMPOSITION AND USE THEREOF” (Qingdao Kingagroot Chemical Compound Co., Ltd., priority 2020, published 2023).

Assays:
Assay in all cases: Weeding effect in post-emergence stage
Type in all cases: in vivo
Conditions in all cases: level of fresh weight growth control rate
Setaria viridis = test system: Setaria viridis
Procedure, shortened: (§1)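 Compound, dissolved in acetone and diluted in water with Tween 80 plus methyl oleate EC (1.5 liter/ha), is sprayed onto 2-3 leaf potted plants. Rates span 7.5–500 g/ha. After 3 weeks of greenhouse culture, weeding effect is counted as the mean of triplicates.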

Alopecurus japonicus = test system: Alopecurus japonicus
Procedure, shortened: as §1

Eleusine indica = test system: Eleusine indica
Procedure, shortened: as §1

Digitaria sanguinalis = test system: Digitaria sanguinalis
Procedure, shortened: as §1

Abutilon theophrasti = test system: Abutilon theophrasti
Procedure, shortened: as §1

Echinochloa crusgalli = test system: Echinochloa crusgalli
Procedure, shortened: as §1

SMILES	Weeding effect in post-emergence stage, Setaria viridis (Setaria viridis; Dose 15 g/ha)	Weeding effect in post-emergence stage, Alopecurus japonicus (Alopecurus japonicus; Dose 15 g/ha)	Weeding effect in post-emergence stage, Eleusine indica (Eleusine indica; Dose 15 g/ha)	Weeding effect in post-emergence stage, Digitaria sanguinalis (Digitaria sanguinalis; Dose 15 g/ha)	Weeding effect in post-emergence stage, Abutilon theophrasti (Abutilon theophrasti; Dose 15 g/ha)	Weeding effect in post-emergence stage, Echinochloa crusgalli (Echinochloa crusgalli; Dose 15 g/ha)	other results
C[C@@H](O/N=C/c1cc(-n2c(=O)cc(C(F)(F)F)n(C)c2=O)c(F)cc1Cl)C(=O)OCc1cccc(F)c1 [285(R)]							Weeding effect in post-emergence stage, Setaria viridis (Setaria viridis; Dose 30 g/ha): 5 (Level 5: growth control rate is above 85%); Weeding effect in post-emergence stage, Alopecurus japonicus (Alopecurus japonicus; Dose 30 g/ha): 5 (Level 5: growth control rate is above 85%); Weeding effect in post-emergence stage, Eleusine indica (Eleusine indica; Dose 30 g/ha): 5 (Level 5: growth control rate is above 85%); Weeding effect in post-emergence stage, Digitaria sanguinalis (Digitaria sanguinalis; Dose 30 g/ha): 5 (Level 5: growth control rate is above 85%); Weeding effect in post-emergence stage, Abutilon theophrasti (Abutilon theophrasti; Dose 30 g/ha): 5 (Level 5: growth control rate is above 85%); Weeding effect in post-emergence stage, Echinochloa crusgalli (Echinochloa crusgalli; Dose 30 g/ha): 5 (Level 5: growth control rate is above 85%)
C[C@@H](O/N=C/c1cc(-n2c(=O)cc(C(F)(F)F)n(C)c2=O)c(F)cc1Cl)C(=O)OCc1ccc(F)cc1 [286(R)]							Weeding effect in post-emergence stage, Setaria viridis (Setaria viridis; Dose 30 g/ha): 5 (Level 5: growth control rate is above 85%); Weeding effect in post-emergence stage, Alopecurus japonicus (Alopecurus japonicus; Dose 30 g/ha): 5 (Level 5: growth control rate is above 85%); Weeding effect in post-emergence stage, Eleusine indica (Eleusine indica; Dose 30 g/ha): 5 (Level 5: growth control rate is above 85%); Weeding effect in post-emergence stage, Digitaria sanguinalis (Digitaria sanguinalis; Dose 30 g/ha): 5 (Level 5: growth control rate is above 85%); Weeding effect in post-emergence stage, Abutilon theophrasti (Abutilon theophrasti; Dose 30 g/ha): 5 (Level 5: growth control rate is above 85%); Weeding effect in post-emergence stage, Echinochloa crusgalli (Echinochloa crusgalli; Dose 30 g/ha): 5 (Level 5: growth control rate is above 85%)
C[C@@H](O/N=C/c1cc(-n2c(=O)cc(C(F)(F)F)n(C)c2=O)c(F)cc1Cl)C(=O)OCc1cccnc1 [302(R)]	5 (Level 5: growth control rate is above 85%)	5 (Level 5: growth control rate is above 85%)	5 (Level 5: growth control rate is above 85%)	5 (Level 5: growth control rate is above 85%)	5 (Level 5: growth control rate is above 85%)	5 (Level 5: growth control rate is above 85%)	
C[C@@H](O/N=C/c1cc(-n2c(=O)cc(C(F)(F)F)n(C)c2=O)c(F)cc1Cl)C(=O)OCc1ccncc1 [303(R)]	5 (Level 5: growth control rate is above 85%)	5 (Level 5: growth control rate is above 85%)	5 (Level 5: growth control rate is above 85%)	5 (Level 5: growth control rate is above 85%)	5 (Level 5: growth control rate is above 85%)	5 (Level 5: growth control rate is above 85%)	
CCOC(=O)[C@@H](F)O/N=C/c1cc(-n2c(=O)cc(C(F)(F)F)n(C)c2=O)c(F)cc1Cl [313(R)]	5 (Level 5: growth control rate is above 85%)	5 (Level 5: growth control rate is above 85%)	5 (Level 5: growth control rate is above 85%)	5 (Level 5: growth control rate is above 85%)	5 (Level 5: growth control rate is above 85%)	5 (Level 5: growth control rate is above 85%)	
CCC[C@@H](O/N=C/c1cc(-n2c(=O)cc(C(F)(F)F)n(C)c2=O)c(F)cc1Cl)C(=O)OC [316(R)]	5 (Level 5: growth control rate is above 85%)	5 (Level 5: growth control rate is above 85%)	5 (Level 5: growth control rate is above 85%)	5 (Level 5: growth control rate is above 85%)	5 (Level 5: growth control rate is above 85%)	5 (Level 5: growth control rate is above 85%)	
COC(=O)[C@H](O/N=C/c1cc(-n2c(=O)cc(C(F)(F)F)n(C)c2=O)c(F)cc1Cl)C(C)C [318(R)]	5 (Level 5: growth control rate is above 85%)	5 (Level 5: growth control rate is above 85%)	5 (Level 5: growth control rate is above 85%)	5 (Level 5: growth control rate is above 85%)	5 (Level 5: growth control rate is above 85%)	5 (Level 5: growth control rate is above 85%)	
CCOC(=O)[C@H](O/N=C/c1cc(-n2c(=O)cc(C(F)(F)F)n(C)c2=O)c(F)cc1Cl)C1CC1 [319(R)]							Weeding effect in post-emergence stage, Setaria viridis (Setaria viridis; Dose 30 g/ha): 5 (Level 5: growth control rate is above 85%); Weeding effect in post-emergence stage, Alopecurus japonicus (Alopecurus japonicus; Dose 30 g/ha): 5 (Level 5: growth control rate is above 85%); Weeding effect in post-emergence stage, Eleusine indica (Eleusine indica; Dose 30 g/ha): 5 (Level 5: growth control rate is above 85%); Weeding effect in post-emergence stage, Digitaria sanguinalis (Digitaria sanguinalis; Dose 30 g/ha): 5 (Level 5: growth control rate is above 85%); Weeding effect in post-emergence stage, Abutilon theophrasti (Abutilon theophrasti; Dose 30 g/ha): 5 (Level 5: growth control rate is above 85%); Weeding effect in post-emergence stage, Echinochloa crusgalli (Echinochloa crusgalli; Dose 30 g/ha): 5 (Level 5: growth control rate is above 85%)
COC(=O)[C@H](OC)O/N=C/c1cc(-n2c(=O)cc(C(F)(F)F)n(C)c2=O)c(F)cc1Cl [321(R)]							Weeding effect in post-emergence stage, Setaria viridis (Setaria viridis; Dose 120 g/ha): 5 (Level 5: growth control rate is above 85%); Weeding effect in post-emergence stage, Alopecurus japonicus (Alopecurus japonicus; Dose 120 g/ha): 5 (Level 5: growth control rate is above 85%); Weeding effect in post-emergence stage, Eleusine indica (Eleusine indica; Dose 120 g/ha): 5 (Level 5: growth control rate is above 85%); Weeding effect in post-emergence stage, Digitaria sanguinalis (Digitaria sanguinalis; Dose 120 g/ha): 5 (Level 5: growth control rate is above 85%); Weeding effect in post-emergence stage, Abutilon theophrasti (Abutilon theophrasti; Dose 120 g/ha): 5 (Level 5: growth control rate is above 85%); Weeding effect in post-emergence stage, Echinochloa crusgalli (Echinochloa crusgalli; Dose 120 g/ha): 5 (Level 5: growth control rate is above 85%)
CCOC(=O)[C@H](OC)O/N=C/c1cc(-n2c(=O)cc(C(F)(F)F)n(C)c2=O)c(F)cc1Cl [322(R)]							Weeding effect in post-emergence stage, Setaria viridis (Setaria viridis; Dose 120 g/ha): 5 (Level 5: growth control rate is above 85%); Weeding effect in post-emergence stage, Alopecurus japonicus (Alopecurus japonicus; Dose 120 g/ha): 5 (Level 5: growth control rate is above 85%); Weeding effect in post-emergence stage, Eleusine indica (Eleusine indica; Dose 120 g/ha): 5 (Level 5: growth control rate is above 85%); Weeding effect in post-emergence stage, Digitaria sanguinalis (Digitaria sanguinalis; Dose 120 g/ha): 5 (Level 5: growth control rate is above 85%); Weeding effect in post-emergence stage, Abutilon theophrasti (Abutilon theophrasti; Dose 120 g/ha): 5 (Level 5: growth control rate is above 85%); Weeding effect in post-emergence stage, Echinochloa crusgalli (Echinochloa crusgalli; Dose 120 g/ha): 5 (Level 5: growth control rate is above 85%)
CCO[C@H](O/N=C/c1cc(-n2c(=O)cc(C(F)(F)F)n(C)c2=O)c(F)cc1Cl)C(=O)OC [331(R)]	5 (Level 5: growth control rate is above 85%)	5 (Level 5: growth control rate is above 85%)	5 (Level 5: growth control rate is above 85%)	5 (Level 5: growth control rate is above 85%)	5 (Level 5: growth control rate is above 85%)	5 (Level 5: growth control rate is above 85%)	
COC(=O)[C@H](O/N=C/c1cc(-n2c(=O)cc(C(F)(F)F)n(C)c2=O)c(F)cc1Cl)c1ccccc1 [337(R)]	5 (Level 5: growth control rate is above 85%)	5 (Level 5: growth control rate is above 85%)	5 (Level 5: growth control rate is above 85%)	5 (Level 5: growth control rate is above 85%)	5 (Level 5: growth control rate is above 85%)	5 (Level 5: growth control rate is above 85%)	
COC(=O)[C@@H](C)O/N=C/c1cc(-n2c(=O)cc(C(F)(F)F)n(C)c2=O)c(F)cc1C(F)(F)F [342(R)]	5 (Level 5: growth control rate is above 85%)	5 (Level 5: growth control rate is above 85%)	5 (Level 5: growth control rate is above 85%)	5 (Level 5: growth control rate is above 85%)	5 (Level 5: growth control rate is above 85%)	5 (Level 5: growth control rate is above 85%)	
COC(=O)[C@@H](C)O/N=C/c1cc(-n2c(=O)cc(C(F)(F)F)n(C)c2=O)c(F)cc1C#N [344(R)]	5 (Level 5: growth control rate is above 85%)	5 (Level 5: growth control rate is above 85%)	5 (Level 5: growth control rate is above 85%)	5 (Level 5: growth control rate is above 85%)	5 (Level 5: growth control rate is above 85%)	5 (Level 5: growth control rate is above 85%)	
COC(=O)[C@@H](C)O/N=C/c1cc(-n2c(=O)cc(C(F)(F)F)n(C)c2=S)c(F)cc1Cl [347(R)]							Weeding effect in post-emergence stage, Setaria viridis (Setaria viridis; Dose 30 g/ha): 5 (Level 5: growth control rate is above 85%); Weeding effect in post-emergence stage, Alopecurus japonicus (Alopecurus japonicus; Dose 30 g/ha): 5 (Level 5: growth control rate is above 85%); Weeding effect in post-emergence stage, Eleusine indica (Eleusine indica; Dose 30 g/ha): 5 (Level 5: growth control rate is above 85%); Weeding effect in post-emergence stage, Digitaria sanguinalis (Digitaria sanguinalis; Dose 30 g/ha): 5 (Level 5: growth control rate is above 85%); Weeding effect in post-emergence stage, Abutilon theophrasti (Abutilon theophrasti; Dose 30 g/ha): 5 (Level 5: growth control rate is above 85%); Weeding effect in post-emergence stage, Echinochloa crusgalli (Echinochloa crusgalli; Dose 30 g/ha): 5 (Level 5: growth control rate is above 85%)
